Here are results for 17 compounds from ChEMBL document CHEMBL3046344, “Phytochemical based strategies for nematode control” (2002).

In brackets after ≈: the same amount, converted by molar mass. Numbered stars: 1 amine (or outer) side, 2 acyl side, 3 side chain; on linkers, the order of the positions; unused ones are H or OH. Bridge positions count the residues as written; N and C are the ends. Square brackets hold non-standard residues; d marks the D form. Peptide text beside a SMILES is read from it. NMeW = CN[C@@H](Cc1c[nH]c2ccccc12)C(=O)O; X1 = CC(C)[C@@H](C(=O)[*:1])N(C)O[*:2]; NMeI = CC[C@H](C)[C@H](NC)C(=O)O; NMeV = CN[C@H](C(=O)O)C(C)C; Sar = CNCC(=O)O

Assay type in all cases: functional
The test system of test [1] is Meloidogyne incognita. Kind of test: Nematocidal activity against Meloidogyne incognita (root-knot nematode) assessed as mortality at 10 ug/ml.
Test [2] relates to Panagrellus redivivus. As to the kind of experiment: Nematocidal activity against Panagrellus redivivus assessed as mortality at 12.5 ug/ml.
Test [3] relates to Caenorhabditis elegans. Kind of test: Nematocidal activity against Caenorhabditis elegans assessed as mortality at 50 ug/ml.
Test [4] relates to Caenorhabditis elegans. As to the kind of experiment: Nematocidal activity against Caenorhabditis elegans assessed as mortality. The note with it: for LC50 / minimal effective concentration: Caenorhabditis elegans; for minimal effective concentration: read-out: MEC.
The subject of test [5] is Meloidogyne incognita. Kind of test: Nematocidal activity against Meloidogyne incognita (root-knot nematode) assessed as inhibition of penetration in tomato root at 25 ug/ml. Also on record: scale not given: the % may be the effect or the level left.
Test [6] concerns Panagrellus redivivus. As to the kind of experiment: Nematocidal activity against Panagrellus redivivus. The note with it: read-out: ED50 (the source's name).
For test [7], the system named is Meloidogyne incognita. As to the kind of experiment: Nematocidal activity against Meloidogyne incognita (root-knot nematode). The note with it: read-out: LD50 (the source's name).
Another test has as its system Heterodera schachtii. Kind of test: Nematocidal activity against Heterodera schachtii. To be noted: read-out: LD50 (the source's name).
The test system of a further test is Radopholus similis. As to the kind of experiment: Nematocidal activity against Radopholus similis. To be noted: read-out: LD50 (the source's name).
Test [8] deals with Pratylenchus penetrans. Kind of test: Nematocidal activity against Pratylenchus penetrans. To be noted: read-out: LD50 (the source's name).
The test system of a further test is Ditylenchus dipsaci. As to the kind of experiment: Nematocidal activity against Ditylenchus dipsaci assessed as motility. To be noted: read-out: ED50 (the source's name).
The subject of test [9] is Pratylenchus penetrans. Kind of test: Nematocidal activity against Pratylenchus penetrans assessed as motility and viability.
Test [10] concerns Meloidogyne incognita. As to the kind of experiment: Nematocidal activity against Meloidogyne incognita (root-knot nematode) assessed as motility and viability.
Test [11] relates to Meloidogyne incognita. As to the kind of experiment: Nematocidal activity against Meloidogyne incognita (root-knot nematode) in tomato assessed as reduction of infection at 50 ug/ml. Also on record: scale not given: the % may be the effect or the level left.
Setting [12] is: read-out: LD50 (the source's name).

`CCCCCCCC/C=C\C(=O)O` [2-UNDECYLENIC ACID]: the Activity in the test on Meloidogyne incognita [1] is given as 70%.
`CCCCC1OC(=O)C2=C1CCC=C2` (centres undefined) [3-N-BUTYL-4,5-DIHYDROPHTHALIDE]: the Activity in the test with Panagrellus redivivus [2] and in the test on Caenorhabditis elegans [3] was 100% in each case.
As to `CC(=O)C#Cc1ccccc1` [4-PHENYL-3-BUTYN-2-ONE], in the test with Caenorhabditis elegans [4] (read-out: LC50), the LC50 worked out at 0.3 µg/mL (≈ 2.08 µM).
With `C=Cc1ccc(O)cc1` [4-VINYLPHENOL], the minimal effective concentration with Caenorhabditis elegans [4] amounted to 300 µg/mL.
Take `C=CCS[S+]([O-])CC=C` (centres undefined) [ALLICIN]: in the test with Meloidogyne incognita [5], the Activity was 50%.
Consider `C[C@H]1CC[C@@H]2[C@@H](C)[C@H]3[C@H](C[C@H]4[C@@H]5CC=C6C[C@@H](O[C@@H]7O[C@H](CO)[C@H](O[C@@H]8O[C@@H](C)[C@H](O)[C@@H](O)[C@H]8O)[C@H](O)[C@@H]7O[C@@H]7O[C@@H](C)[C@@H](O)[C@@H](O)[C@H]7O)CC[C@]6(C)[C@H]5CC[C@]34C)N2C1` [ALPHA-CHACONINE], for which, in the test with Panagrellus redivivus [6], the EC50 was found to be 85 µg/mL (≈ 99.8 µM).
In the case of `Oc1ccccc1O` [CATECHOL], the Activity in the test on Caenorhabditis elegans [4] amounted to 100%.
For the compound `C=CCc1ccc(O)cc1` [CHAVICOL], the minimal effective concentration in the test with Caenorhabditis elegans [4] stood at 300 µg/mL.
As for `COc1c(-c2ccco2)coc(=O)c1C` [CLADOBOTRIN], the LC50 in the test on Meloidogyne incognita [7] is 100 µg/mL (≈ 485 µM).
Turning to `COc1cc(CC(C)C(C)Cc2ccc(O)c(OC)c2)ccc1O` (centres undefined) [DIHYDROGUAIARETIC ACID], the LC50 with Caenorhabditis elegans [4] (setting [12]) amounted to 10 µg/mL (≈ 30.3 µM).
Take `C=CCc1ccc(O)c(O)c1` [HYDROXYCHAVICOL]: the minimal effective concentration in the test with Caenorhabditis elegans [4] is 300 µg/mL.
Turning to `CCCCC/C=C\C/C=C\CCCCCCCC(=O)O` [LINOLEIC ACID], the LC50 is 5 µg/mL (≈ 17.8 µM) with Caenorhabditis elegans [4] (setting [12]) and 50 µg/mL (≈ 178 µM) with Meloidogyne incognita [7].
As to `CC[C@H](C)[C@H]1C(=O)NCC(=O)N(C)[C@@H](Cc2c[nH]c3ccccc23)C(=O)N[C@@H](C(C)C)C(=O)N(C)[C@@H]([C@@H](C)CC)C(=O)N(C)[C@@H](C(C)C)C(=O)ON(C)[C@@H](C(C)C)C(=O)N(C)CC(=O)N(C)[C@@H](C(C)C)C(=O)N(C)[C@@H]([C@@H](C)CC)C(=O)N(C)CC(=O)N[C@@H](C(C)C)C(=O)N1C` [OMPHALOTIN A] ([Sar][NMeV][NMeI][Sar]V[NMeI]G[NMeW]V[NMeI][NMeV]; linker N-C via X1), the LC50 in the test with Heterodera schachtii was 30 µg/mL (≈ 22.5 µM); in the test on Radopholus similis it was greater than 75 µg/mL; with Pratylenchus penetrans [8], 25 µg/mL (≈ 18.7 µM); with Meloidogyne incognita [7] it was 0.75 µg/mL (≈ 0.562 µM).
On to `COc1cc(O)cc(/C=C/c2ccccc2)c1` [PINOSYLVIN METHYL ETHER], for which, in the test on Caenorhabditis elegans [4] (setting [12]), the LC50 came to 4 µg/mL (≈ 17.7 µM).
In the case of `C=C(C)[C@@H]1CCC2=C[C@@H](O)[C@H](O)[C@@H](C)C2C1` (some centres undefined) [RISHITIN], the EC50 in the test on Ditylenchus dipsaci is 100 µg/mL (≈ 450 µM).
Turning to `C=C/C=C/C#CC1=CC=C(C#CC)SS1` [THIARUBRINE C], the LC50 with Pratylenchus penetrans [9] is 23500 µg/mL (≈ 102000 µM); in the test on Meloidogyne incognita [10], 12400 µg/mL (≈ 53800 µM). For the same compound, the Activity in the test on Meloidogyne incognita [11] amounted to 95%.
`C[C@H]1CC[C@]2(NC1)O[C@H]1C[C@H]3[C@@H]4CC[C@H]5C[C@@H](O[C@@H]6O[C@H](CO)[C@H](O[C@@H]7O[C@H](CO)[C@@H](O)[C@H](O[C@@H]8OC[C@@H](O)[C@H](O)[C@H]8O)[C@H]7O[C@@H]7O[C@H](CO)[C@@H](O)[C@H](O)[C@H]7O)[C@H](O)[C@H]6O)CC[C@]5(C)[C@H]4CC[C@]3(C)[C@H]1[C@@H]2C` [TOMATINE]: in the test on Panagrellus redivivus [6], the EC50 worked out at 50 µg/mL (≈ 48.3 µM).
